Test results published in patent publication US7576222B2, “Alkynyl-containing tryptophan derivative inhibitors of TACE/matrix metalloproteinase” (priority 2004, dated 2009).
Where two headings read alike, the source gives them in different places.

How the values were obtained:
[1] = target: T1, catalytic domain of the recombinant TACE protein (Homo sapiens, UniProt P78536); assay: TACE FRET assay using TACE cat; assay type: biochemical; conditions: for inhibition at 1 µM: read-out: TACE Inhibition (%)
T1 construct: The catalytic domain of the recombinant TACE protein was expressed and purified; made in house
How it was run: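 Initial fluorescence rate of Abz-[sequence]-Dpa pro-TNF-α peptide cleavage (substrate from 2 mM stock) read after adding substrate to enzyme (1 ug/ml) preincubated 10 min, room temperature, with inhibitor.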

[2] = system: TNF-α Secretion in Raw Cells (Raw 264.7 cells); assay: Cell-based assay for inhibition of TNF-α secretion in Raw cells; conditions: Mus musculus, RAW264.7, 4 h, read-out: TNF-α Secretion in Raw Cells IC50
Procedure: Cell-Based Assay for Inhibition of TNF-A Secretion in Raw Cells
The basic measurement of the assay is the percentage of inhibition of TNF-α secretion and the IC50 determination by a fitting with the model-39 of LSW data analysis tool.
Raw 264.7 cells (ATCC Cat No. TIB-71) are maintained in DMEM medium containing 10% of serum, P/S, and Glutamine. […] For testing compounds, cells are cultured to confluence and are seeded the day before the experiment in 24 well culture dishes at 0.5 to 1 million/ml/well. On the next morning, the medium from the overnight culture is replaced with the fresh growth medium. The compounds are added at various concentrations at the 0.2% of final DMSO concentrations (10 μl of a 20% DMSO solution containing testing compounds is added to each well). The cells are pre-incubated with compounds for 1 hour. LPS (Sigma, L2262) is added to cells at a final concentration of 100 ng/ml (10 μl of a […] LPS solution freshly diluted from a 1 mg/ml LPS stock solution in PBS is added to each well) and cells are further incubated for 4 hours at 37° C. One milliliter (1 ml) of the supernatant was collected, cells are spun down and the supernatants are frozen at −80° C. until use.
The TNF-α and other proinflammatory cytokines were detected by ELISA assay according to the manufacturer's instruction (Biosource International, Inc., Camarillo, Calif.) (For IL-1b measurement in Raw cells, one round of freeze and thaw of the cells was required.)

[3] = target: T2, recombinant human catalytic domain of MMP-13 (Homo sapiens, UniProt P45452); assay: biochemical
T2 construct: catalytic domain of MMP-13 (165 amino acids, residues 104-268, 19 kDa)
From the text: (§1) A continuous assay was used in which the substrate is a synthetic peptide containing a fluorescent group (7-methoxycoumarin; Mca) that is quenched by energy transfer to a 2,4-dinitrophenyl group. See Knight, C. G. et al., FEBS Lett. (1992) 296: 263-266, incorporated herein by reference in its entirety. […] See Zhang, Y et al., Journal of Pharmacology and Experimental Therapeutics (JPET) (2004) 309:348-355, incorporated by reference in its entirety. The substrate used was Mca-PQGL-(3-[2,4-dinitrophenyl]-L-2,3-diaminopropionyl)-AR-OH (denoted as Wammp-5, custom synthesized by AnaSpec, Inc., San Jose, Calif.). The assay buffer consisted of 50 mM Hepes (pH 7.4), 100 mM NaCl, 5 mM CaCl2, and 0.005% Brij-35. Each well of black polystyrene 96-well plates contained a 200 μl reaction mixture consisting of assay buffer, purified MMP (final concentration of 25 ng/ml, prepared by diluting with the assay buffer), and varied concentrations of inhibitor (prepared by serially diluting a given inhibitor in DMSO in 96-well polypropylene plate). The plates were then incubated at 30° C. for 15 minutes. The enzymatic reactions were initiated by adding the substrate to a final concentration of 20 μM, and mixing 10 times with a pipette. The final DMSO concentration in the assay was 6.0%. The initial rate of the cleavage reaction was determined at 30° C. with a fluorescence plate reader (excitation filter of 330 nm and emission filter of 395 nm) immediately after substrate addition.
(§2) Plots of the inhibitor concentration versus the percent inhibition were fit to the following equation: y=(a−d)/[1+(x/c)^b]+d, a general sigmoidal curve with Hill slope, a to d. x is the inhibitor concentration under test. “y” is the percent inhibition. “a” is the limiting response as x approaches zero. As x increases without bound, y tends toward its limit d. “c” is the inflection point (IC50) for the curve. That is, y is halfway between the lower and upper asymptotes when x=c. “b” is the slope factor or Hill coefficient.
In-Vitro Fluorescence Assay of MMP-13 Activity
See Zhang, Y et al., Journal of Pharmacology and Experimental Therapeutics (JPET) (2004) 309:348-355, incorporated by reference in its entirety.

[4] = target: T3, recombinant human MMP-2 (Homo sapiens, UniProt P08253); assay: In-vitro fluorescence (FRET) assay of MMP-2 activity; assay type: biochemical
T3 construct: purchased Oncogene Research Products (Calbiochem) PF023
From the text: as §1, §2
In-Vitro Fluorescence Assay of MMP-2 Activity

[5] = TACE FRET assay, catalytic domain of recombinant TACE, read-out: TACE IC50

T3 sequence (P08253 110-660): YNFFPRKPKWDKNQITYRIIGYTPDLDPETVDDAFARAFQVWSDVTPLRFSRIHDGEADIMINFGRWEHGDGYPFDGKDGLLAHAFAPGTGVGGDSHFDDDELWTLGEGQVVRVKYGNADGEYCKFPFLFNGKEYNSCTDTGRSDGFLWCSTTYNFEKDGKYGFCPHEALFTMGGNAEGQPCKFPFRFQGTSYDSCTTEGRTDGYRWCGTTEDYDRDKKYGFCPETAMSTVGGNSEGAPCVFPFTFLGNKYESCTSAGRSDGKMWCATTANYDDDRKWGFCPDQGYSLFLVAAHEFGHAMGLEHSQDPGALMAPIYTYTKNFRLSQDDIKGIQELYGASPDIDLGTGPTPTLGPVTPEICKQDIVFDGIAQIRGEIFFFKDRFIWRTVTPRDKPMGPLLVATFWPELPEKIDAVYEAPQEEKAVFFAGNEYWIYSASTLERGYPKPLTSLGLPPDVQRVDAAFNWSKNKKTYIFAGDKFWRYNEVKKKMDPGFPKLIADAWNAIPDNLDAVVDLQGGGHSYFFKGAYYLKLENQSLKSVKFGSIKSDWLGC
T1 sequence (P78536 223-474 limits assumed): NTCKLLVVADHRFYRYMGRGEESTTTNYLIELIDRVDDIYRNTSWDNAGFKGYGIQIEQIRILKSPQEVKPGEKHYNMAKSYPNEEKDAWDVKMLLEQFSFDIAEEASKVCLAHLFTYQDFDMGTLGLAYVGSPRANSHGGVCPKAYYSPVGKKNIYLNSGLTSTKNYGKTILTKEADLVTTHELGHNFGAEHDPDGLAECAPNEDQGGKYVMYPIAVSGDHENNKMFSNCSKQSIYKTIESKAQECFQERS

Row | Structure (SMILES) | IC50 [1] [nM] | inhibition at 1 µM [1] [%] | also measured
1 | CC#CCOc1ccc(S(=O)(=O)N[C@H](Cc2cn(CCCCOc3ccccc3)c3ccccc23)C(=O)O)cc1 [Example 24, N-{[4-(but-2-ynyloxy)phenyl]sulfonyl}-1-(4-phenoxybutyl)-D-tryptophan] | – | – | IC50 [1, 5]: 1250 nM; IC50 [2]: > 60 µM
2 | CC#CCOc1ccc(S(=O)(=O)N[C@@H](Cc2c(C)n(Cc3ccc(F)cc3)c3ccc(OC)cc23)C(=O)O)cc1 [Example 199, N-{[4-(but-2-ynyloxy)phenyl]sulfonyl}-1-(4-fluorobenzyl)-5-methoxy-2-methyltryptophan] | 320 | – | IC50 [2]: > 60 µM
3 | CC#CCOc1ccc(S(=O)(=O)N[C@H](Cc2cn(Cc3ccc(F)cc3)c3ccccc23)C(=O)O)cc1 [Example 28, N-{[4-(but-2-ynyloxy)phenyl]sulfonyl}-1-(4-fluorobenzyl)-D-tryptophan] | – | – | IC50 [1, 5]: 1900 nM; IC50 [3]: 17 µM; IC50 [4]: 3.97 µM
4 | CC#CCOc1ccc(S(=O)(=O)NC(Cc2c[nH]c3ccc(OCc4ccccc4)cc23)C(=O)O)cc1 (racemic) [Example 20, 5-(benzyloxy)-N-{[4-(but-2-ynyloxy)phenyl]sulfonyl}tryptophan] | 750 | – | IC50 [3]: 15.3 µM; IC50 [4]: 7.85 µM
5 | CC#CCOc1ccc(S(=O)(=O)N[C@@H](Cc2cn(Cc3cccc(OC)c3)c3ccc(OC)cc23)C(=O)O)cc1 [Example 52, N-{[4-(but-2-ynyloxy)phenyl]sulfonyl}-5-methoxy-1-(3-methoxybenzyl)tryptophan] | 2240 | – | –
6 | CC#CCOc1ccc(S(=O)(=O)N[C@H](Cc2cn(Cc3cc(OC)cc(OC)c3)c3ccccc23)C(=O)O)cc1 [Example 36, N-{[4-(but-2-ynyloxy)phenyl]sulfonyl}-1-(3,5-dimethoxybenzyl)-D-tryptophan] | – | – | IC50 [1, 5]: 980 nM
7 | CC#CCOc1ccc(S(=O)(=O)N[C@@H](Cc2cn(Cc3ccccc3F)c3ccc(C(=O)O)cc23)C(=O)O)cc1 [Example 115, N-{[4-(but-2-ynyloxy)phenyl]sulfonyl}-5-carboxy-1-(2-fluorobenzyl)tryptophan] | – | 4.29 | –
8 | CC#CCOc1ccc(S(=O)(=O)N[C@@H](Cc2cn(Cc3ccccc3OC)c3ccc(C#N)cc23)C(=O)O)cc1 [Example 137, N-{[4-(but-2-ynyloxy)phenyl]sulfonyl}-5-cyano-1-(2-methoxybenzyl)tryptophan] | – | 12.1 | –
9 | CC#CCOc1ccc(S(=O)(=O)N[C@@H](Cc2cn(Cc3ccc(OC)cc3)c3ccc(C(=O)O)cc23)C(=O)O)cc1 [Example 109, N-{[4-(but-2-ynyloxy)phenyl]sulfonyl}-5-carboxy-1-(4-methoxybenzyl)tryptophan] | – | 7.93 | –
10 | CC#CCOc1ccc(S(=O)(=O)N[C@@H](Cc2c(C)n(Cc3ccccc3F)c3ccc(OC)cc23)C(=O)O)cc1 [Example 197, N-{[4-(but-2-ynyloxy)phenyl]sulfonyl}-1-(2-fluorobenzyl)-5-methoxy-2-methyltryptophan] | 300 | – | –
11 | CC#CCOc1ccc(S(=O)(=O)N[C@@H](Cc2cn(Cc3ccc(C(C)C)cc3)c3ccc(C(=O)O)cc23)C(=O)O)cc1 [Example 120, N-{[4-(but-2-ynyloxy)phenyl]sulfonyl}-5-carboxy-1-(4-isopropylbenzyl)tryptophan] | – | 10 | –
12 | CC#CCOc1ccc(S(=O)(=O)N[C@H](Cc2cn(C)c3ccccc23)C(=O)O)cc1 [Example 21, N-{[4-(but-2-ynyloxy)phenyl]sulfonyl}-1-methyl-D-tryptophan] | 1400 | – | –
13 | CC#CCOc1ccc(S(=O)(=O)N[C@@H](Cc2c(C)n(CC3CCC3)c3ccc(OC)cc23)C(=O)O)cc1 [Example 212, N-{[4-(but-2-ynyloxy)phenyl]sulfonyl}-1-(cyclobutylmethyl)-5-methoxy-2-methyltryptophan] | – | 59.5 | –
14 | CC#CCOc1ccc(S(=O)(=O)N[C@@H](Cc2cn(Cc3ccc4c(c3)OCO4)c3ccc(OC)cc23)C(=O)O)cc1 [Example 65, 1-(1,3-benzodioxol-5-ylmethyl)-N-{[4-(but-2-ynyloxy)phenyl]sulfonyl}-5-methoxytryptophan] | 1500 | – | –
15 | CC#CCOc1ccc(S(=O)(=O)NC(Cc2c[nH]c3ccc(C)cc23)C(=O)O)cc1 (racemic) [Example 6, N-{[4-(but-2-ynyloxy)phenyl]sulfonyl}-5-methyltryptophan] | 280 | – | IC50 [3]: 6.87 µM; IC50 [4]: 1.16 µM
16 | CC#CCOc1ccc(S(=O)(=O)N[C@H](Cc2cn(CCCCC)c3ccccc23)C(=O)O)cc1 [Example 22, N-{[4-(but-2-ynyloxy)phenyl]sulfonyl}-1-pentyl-D-tryptophan] | – | – | IC50 [1, 5]: 2310 nM
17 | CC#CCOc1ccc(S(=O)(=O)N[C@@H](Cc2c(C)n(CC(C)C)c3ccc(Cl)cc23)C(=O)O)cc1 [Example 101, N-{[4-(but-2-ynyloxy)phenyl]sulfonyl}-5-chloro-1-isobutyl-2-methyltryptophan] | – | 68.5 | –
18 | CC#CCOc1ccc(S(=O)(=O)N[C@@H](Cc2cn(Cc3ccccc3)c3ccc(OC)cc23)C(=O)O)cc1 [Example 48, 1-benzyl-N-{[4-(but-2-ynyloxy)phenyl]sulfonyl}-5-methoxytryptophan] | – | 37.2 | –
19 | CC#CCOc1ccc(S(=O)(=O)N[C@@H](Cc2c(C)n(Cc3ccc(C(F)(F)F)cc3)c3ccc(OC)cc23)C(=O)O)cc1 [Example 195, N-{[4-(but-2-ynyloxy)phenyl]sulfonyl}-5-methoxy-2-methyl-1-[4-(trifluoromethyl)benzyl]tryptophan] | – | 78.3 | –
20 | CC#CCOc1ccc(S(=O)(=O)N[C@@H](Cc2c(C)n(Cc3ccc(C)cc3)c3ccc(Cl)cc23)C(=O)O)cc1 [Example 92, N-{[4-(but-2-ynyloxy)phenyl]sulfonyl}-5-chloro-2-methyl-1-(4-methylbenzyl)tryptophan] | – | 64 | –
21 | CC#CCOc1ccc(S(=O)(=O)N[C@H](Cc2cn(Cc3ccc(Cl)cc3)c3ccccc23)C(=O)O)cc1 [Example 42, N-{[4-(but-2-ynyloxy)phenyl]sulfonyl}-1-(4-chlorobenzyl)-D-tryptophan] | – | – | IC50 [1, 5]: 3450 nM
22 | CC#CCOc1ccc(S(=O)(=O)N[C@@H](Cc2cn(Cc3ccccc3C)c3ccc(Cl)cc23)C(=O)O)cc1 [Example 72, N-{[4-(but-2-ynyloxy)phenyl]sulfonyl}-5-chloro-1-(2-methylbenzyl)tryptophan] | – | 27.5 | –
23 | CC#CCOc1ccc(S(=O)(=O)N[C@@H](Cc2cn(Cc3ccc(Cl)cc3)c3ccc(C(=O)O)cc23)C(=O)O)cc1 [Example 119, N-{[4-(but-2-ynyloxy)phenyl]sulfonyl}-5-carboxy-1-(4-chlorobenzyl)tryptophan] | – | 11.7 | –
24 | CC#CCOc1ccc(S(=O)(=O)N[C@@H](Cc2cn(CCCCC)c3ccc(OC)cc23)C(=O)O)cc1 [Example 68, N-{[4-(but-2-ynyloxy)phenyl]sulfonyl}-5-methoxy-1-pentyltryptophan] | 1320 | – | –
